Here are results for two compounds from ChEMBL document CHEMBL6078675, “Discovery of Ureido-Containing Alteropeptilides and Intramolecular Cyclized Alteramides in Pseudoalteromonas flavipulchra S16 by Promoter Engineering of Cryptic Biosynthetic Gene Clusters” (J Nat Prod, 2024).

The structures appear in SMILES notation. Activity calls are given as the source filed them. The calls are words filed in the database; no cut-off is given here. Numbered stars: 1 amine (or outer) side, 2 acyl side, 3 side chain; on linkers, the order of the positions; unused ones are H or OH. Peptide text beside a SMILES is read from it. Trp(6-Br) = N[C@@H](Cc1c[nH]c2cc(Br)ccc12)C(=O)O; CO = O=C([*:1])[*:2]

One series has as its system Staphylococcus aureus. The series can be described thus: Antibacterial activity against Staphylococcus aureus ATCC 29213 at 1 mM at 20 uM incubated for 16 hrs by disk diffusion method. The class given is functional, organism-based. In general terms: Agar diffusion results depend on both activity and mobility in agar.
The subject of the next series is DU-145. Nature of the series: Cytotoxicity against human DU-145 cells assessed as inhibition of cell proliferation at 20 uM incubated for 24 hrs by CCK8 assay. The class given is functional, cell-based.
Series [1] has as its system RAW264.7. Nature of the series: Cytotoxicity against mouse RAW264.7 cells assessed as inhibition of cell proliferation at 20 uM incubated for 24 hrs by CCK8 assay. The series is classed as functional, cell-based.
The subject of another series is L02. Nature of the series: Cytotoxicity against human L02 cells assessed as inhibition of cell proliferation at 20 uM incubated for 24 hrs by CCK8 assay. The series is classed as toxicity, cell-based. The following applies: l02, 24 h. Background: Tetrazolium assays rely on reduction of a dye to a coloured formazan, in cell work by metabolically active cells.
In the next series the test system is A549. The series can be described thus: Cytotoxicity against human A549 cells assessed as inhibition of cell proliferation at 20 uM incubated for 24 hrs by CCK8 assay. The class given is functional, cell-based.
Another series deals with HCT-116. The series can be described thus: Cytotoxicity against human HCT-116 cells assessed as inhibition of cell proliferation at 20 uM incubated for 24 hrs by CCK8 assay. The series is classed as functional, cell-based.
A further series has as its system 786-0. Nature of the series: Cytotoxicity against human 786-0 cells assessed as inhibition of cell proliferation at 20 uM incubated for 24 hrs by CCK8 assay. The class given is functional, cell-based.
Another series concerns GBC-SD. Nature of the series: Cytotoxicity against human GBC-SD cells assessed as inhibition of cell proliferation at 20 uM incubated for 24 hrs by CCK8 assay. The series is classed as functional, cell-based.
The test system of another series is HOS. Nature of the series: Cytotoxicity against human HOS cells assessed as inhibition of cell proliferation at 20 uM incubated for 24 hrs by CCK8 assay. The series is classed as functional, cell-based.
The next series concerns HeLa. The series can be described thus: Cytotoxicity against human HeLa cells assessed as inhibition of cell proliferation at 20 uM incubated for 24 hrs by CCK8 assay. The series is classed as functional, cell-based.
For series [2], the system named is RAW264.7. Nature of the series: Anti-inflammatory activity against mouse RAW264.7 cells at 20 uM pretreated for 30 mins followed by LPS treatment for 24 hrs by Griess assay. The series is classed as functional, cell-based. The following applies: time 24.5 hrs.
Another series relates to K562. The series can be described thus: Cytotoxicity against human K562 cells assessed as inhibition of cell proliferation at 20 uM incubated for 24 hrs by CCK8 assay. The class given is functional, cell-based.
Another series concerns PaTu 8988t. The series can be described thus: Cytotoxicity against human PaTu 8988t cells assessed as inhibition of cell proliferation at 20 uM incubated for 24 hrs by CCK8 assay. The series is classed as functional, cell-based.
For another series, the system named is Escherichia coli. The series can be described thus: Antibacterial activity against Escherichia coli CGMCC 44102 at 1 mM at 20 uM incubated for 16 hrs by disk diffusion method. The class given is functional, organism-based.
The subject of a further series is TE-1. The series can be described thus: Cytotoxicity against human TE-1 cells assessed as inhibition of cell proliferation at 20 uM incubated for 24 hrs by CCK8 assay. The series is classed as functional, cell-based.
The subject of the next series is 5637. Nature of the series: Cytotoxicity against human 5637 cells assessed as inhibition of cell proliferation at 20 uM incubated for 24 hrs by CCK8 assay. The series is classed as functional, cell-based.
The test system of a further series is A673. The series can be described thus: Cytotoxicity against human A673 cells assessed as inhibition of cell proliferation at 20 uM incubated for 24 hrs by CCK8 assay. The class given is functional, cell-based.
The subject of another series is MCF7. The series can be described thus: Cytotoxicity against human MCF7 cells assessed as inhibition of cell proliferation at 20 uM incubated for 24 hrs by CCK8 assay. The series is classed as functional, cell-based.
The next series deals with MKN-45. Nature of the series: Cytotoxicity against human MKN-45 cells assessed as inhibition of cell proliferation at 20 uM incubated for 24 hrs by CCK8 assay. The class given is functional, cell-based.
Another series has as its system Bacillus subtilis. Nature of the series: Antibacterial activity against Bacillus subtilis ATCC 6633 at 1 mM at 20 uM incubated for 16 hrs by disk diffusion method. The class given is functional, organism-based.
A further series concerns A-375. Nature of the series: Cytotoxicity against human A-375 cells assessed as inhibition of cell proliferation at 20 uM incubated for 24 hrs by CCK8 assay. The series is classed as functional, cell-based.
The next series relates to HepG2. The series can be described thus: Cytotoxicity against human HepG2 cells assessed as inhibition of cell proliferation at 20 uM incubated for 24 hrs by CCK8 assay. The class given is functional, cell-based.
In a further series the test system is CAL-62. The series can be described thus: Cytotoxicity against human CAL-62 cells assessed as inhibition of cell proliferation at 20 uM incubated for 24 hrs by CCK8 assay. The series is classed as functional, cell-based.
The next series has as its system SF-126. Nature of the series: Cytotoxicity against human SF-126 cells assessed as inhibition of cell proliferation at 20 uM incubated for 24 hrs by CCK8 assay. The series is classed as functional, cell-based.

Take `COC(=O)[C@@H](NC(=O)[C@H](Cc1c[nH]c2ccccc12)NC(=O)[C@H](Cc1c[nH]c2ccccc12)NC(=O)[C@@H](NC(=O)N[C@@H](Cc1c[nH]c2cc(Br)ccc12)C(=O)O)[C@@H](C)O)C(C)C` ({Trp(6-Br)-CO}-TWWV-OMe): the outcome with Staphylococcus aureus, in the series on DU-145, in the series with RAW264.7 [1], in the series on A549, with HCT-116 and in the series with 786-0 was inactive. The result in the series on GBC-SD, with HOS, with HeLa, in the series on RAW264.7 [2], in the series with K562 and in the series with PaTu 8988t was inactive. In addition, the outcome in the series on Escherichia coli, in the series on TE-1, in the series on 5637, in the series with A673, with MCF7 and in the series on MKN-45 was inactive. Moreover, the outcome in the series with Bacillus subtilis, in the series with A-375, in the series with HepG2, in the series with CAL-62 and in the series with SF-126 was inactive. In addition, the Activity result in the series on L02 is on record as “Non-toxic”.

In the case of `COC(=O)[C@@H](NC(=O)[C@H](Cc1c[nH]c2ccccc12)NC(=O)[C@H](Cc1c[nH]c2ccccc12)NC(=O)[C@@H](NC(=O)N[C@@H](Cc1c[nH]c2ccccc12)C(=O)O)[C@@H](C)O)C(C)C` ({Trp-CO}-TWWV-OMe), the outcome with Staphylococcus aureus, with DU-145, in the series on RAW264.7 [1], in the series with A549, in the series with HCT-116 and in the series on 786-0 was inactive. The outcome in the series on GBC-SD, with HOS, in the series on HeLa, in the series on RAW264.7 [2], in the series with K562 and in the series on PaTu 8988t was inactive. In addition, the outcome in the series with Escherichia coli, in the series on TE-1, in the series on 5637, in the series on A673, in the series with MCF7 and with MKN-45 was inactive. The result in the series with Bacillus subtilis, in the series with A-375, with HepG2, in the series on CAL-62 and in the series on SF-126 was inactive. The Activity result in the series with L02 is reported as “Non-toxic”.
